According to patent US10717716B2, “1,3,4-oxadiazole derivative compounds as histone deacetylase 6 inhibitor, and the pharmaceutical composition comprising the same” (Chong Kun Dang Pharmaceutical Corp., priority 2015, dated 2020):

Assays:
human recombinant HDAC6 = target: T1, human recombinant HDAC6 (Homo sapiens, UniProt Q9UBN7); assay: HDAC6 enzyme activity inhibition assay (HDAC Fluorimetric Drug Discovery Kit); format: biochemical; settings: for HDAC6 selectivity (fold): HDAC6 over HDAC1; for IC50: human recombinant HDAC6, same protocol as HDAC1, read-out: HDAC6
T1 construct: purchased Calbiochem 382180
T1 sequence (Q9UBN7 1-1215): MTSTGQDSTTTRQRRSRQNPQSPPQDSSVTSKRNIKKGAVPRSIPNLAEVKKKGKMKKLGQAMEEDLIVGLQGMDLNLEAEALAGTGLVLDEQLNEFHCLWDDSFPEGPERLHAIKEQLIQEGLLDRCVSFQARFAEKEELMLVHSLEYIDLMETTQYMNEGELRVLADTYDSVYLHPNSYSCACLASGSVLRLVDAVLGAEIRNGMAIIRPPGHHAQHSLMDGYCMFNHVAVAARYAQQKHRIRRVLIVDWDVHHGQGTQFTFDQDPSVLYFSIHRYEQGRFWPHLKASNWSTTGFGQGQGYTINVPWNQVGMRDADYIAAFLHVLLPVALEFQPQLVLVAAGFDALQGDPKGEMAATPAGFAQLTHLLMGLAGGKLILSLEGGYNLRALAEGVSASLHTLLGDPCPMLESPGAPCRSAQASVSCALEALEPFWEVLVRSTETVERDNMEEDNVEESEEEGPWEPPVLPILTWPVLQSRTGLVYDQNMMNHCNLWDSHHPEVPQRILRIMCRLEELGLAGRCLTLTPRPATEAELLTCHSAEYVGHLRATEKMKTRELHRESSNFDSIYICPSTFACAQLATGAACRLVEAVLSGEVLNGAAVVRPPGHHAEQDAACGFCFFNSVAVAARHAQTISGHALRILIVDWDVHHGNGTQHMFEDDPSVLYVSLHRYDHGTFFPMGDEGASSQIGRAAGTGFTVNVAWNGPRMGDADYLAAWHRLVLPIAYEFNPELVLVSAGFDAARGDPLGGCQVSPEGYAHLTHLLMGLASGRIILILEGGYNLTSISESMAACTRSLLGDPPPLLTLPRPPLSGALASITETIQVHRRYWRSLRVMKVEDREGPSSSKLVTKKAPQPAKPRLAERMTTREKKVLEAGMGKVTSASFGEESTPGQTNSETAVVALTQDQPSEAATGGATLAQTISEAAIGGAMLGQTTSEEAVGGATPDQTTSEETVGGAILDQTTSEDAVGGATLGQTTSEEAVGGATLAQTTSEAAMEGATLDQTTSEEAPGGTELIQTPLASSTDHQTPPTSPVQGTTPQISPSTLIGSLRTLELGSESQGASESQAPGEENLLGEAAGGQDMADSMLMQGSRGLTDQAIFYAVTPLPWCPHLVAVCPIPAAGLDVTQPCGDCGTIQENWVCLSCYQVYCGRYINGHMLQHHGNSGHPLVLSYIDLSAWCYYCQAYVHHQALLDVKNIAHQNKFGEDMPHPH
Summary of the method: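 Human recombinant HDAC1 or HDAC6 (0.3 μg) reacted with 10 μM Fluor de Lys-SIRT1 substrate and 5-fold compound dilutions for 60 min at 30 °C. Developer II added for 30 min, fluorescence read at Ex 360/Em 460; IC50 calculated from the readings.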

human recombinant HDAC1 = target: T2, human recombinant HDAC1 (Homo sapiens, UniProt Q13547); assay: HDAC1 enzyme activity inhibition assay (HDAC Fluorimetric Drug Discovery Kit); format: biochemical; settings: human recombinant HDAC1, Fluor de Lys substrate 10 μM, 30° C. 60 minutes
T2 construct: purchased Enzo Life Science BML-SE456
Description: In order to examine the HDAC6 selectivity of the compounds of formula I of the present invention by HDAC1 and HDAC6 enzymatic activity inhibition assays, an experiment was performed using a conventional substance as a control.
HDAC enzyme activity was measured using a HDAC Fluorimetric Drug Discovery Kit (BML-AK511, 516, Enzo Life Science). For the HDAC1 enzyme activity test, human recombinant HDAC1 (BML-SE456) was used as an enzyme source, and Fluor de Lys®-“SIRT1 (BNL-KI177) was used as a substrate. A 5-fold dilution of the compound was seeded into a 96-well plate, and then 0.3 μg of the enzyme and 10 μM of the substrate were added to each well of the plate and allowed to react at 30° C. for 60 minutes. Then, Fluor de Lys®-Developer II (BML-KI176) was added thereto and allowed to react for 30 minutes, after which the fluorescence value (Ex 360, Em 460) was measured using a multi-plate reader (Flexstation 3, Molecular Device). The HDAC6 enzyme was tested using human recombinant HDAC6 (382180) (Calbiochem) according to the same protocol as the HDAC1 enzyme activity test method. Based on the resulting values, each IC5, value was calculated using GraphPad Prism4.0 program.

T2 sequence (Q13547 whole entry): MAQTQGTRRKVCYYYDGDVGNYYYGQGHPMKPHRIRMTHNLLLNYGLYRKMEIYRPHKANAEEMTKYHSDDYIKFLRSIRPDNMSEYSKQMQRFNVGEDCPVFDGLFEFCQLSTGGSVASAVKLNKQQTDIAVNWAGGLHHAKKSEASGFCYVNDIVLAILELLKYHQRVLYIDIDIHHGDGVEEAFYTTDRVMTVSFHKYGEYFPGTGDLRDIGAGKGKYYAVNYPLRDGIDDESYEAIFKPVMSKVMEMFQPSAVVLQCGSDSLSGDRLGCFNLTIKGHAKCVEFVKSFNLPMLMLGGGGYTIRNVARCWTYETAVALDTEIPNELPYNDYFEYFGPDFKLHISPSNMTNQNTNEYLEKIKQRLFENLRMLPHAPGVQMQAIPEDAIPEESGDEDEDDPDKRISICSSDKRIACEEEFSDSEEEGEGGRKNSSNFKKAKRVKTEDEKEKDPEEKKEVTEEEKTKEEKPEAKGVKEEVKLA

SMILES | HDAC6 selectivity (fold) (human recombinant HDAC6) | IC50 (human recombinant HDAC6) [nM] | IC50 (human recombinant HDAC1) [nM]
Cc1cccc(N(Cc2ccc(-c3nnc(C(F)(F)F)o3)cc2)C(=O)N2CCS(=O)(=O)CC2)c1 [Compound 21442, N-(m-tolyl)-N-(4-(5-(trifluoromethyl)-1,3,4-oxadiazol-2-yl)benzyl)thiomorpholine-4-carboxamide 1,1-dioxide] | 77 | 114 | 8730
CS(=O)(=O)c1ccc(N(Cc2ccc(-c3nnc(C(F)(F)F)o3)cc2)C(=O)N2CCOCC2)cc1 [Compound 21443, N-(4-(methylsulfonyl)phenyl)-N-(4-(5-(trifluoromethyl)-1,3,4-oxadiazol-2-yl)benzyl)morpholine-4-carboxamide] | 20 | 366 | 7440
O=C(N1CCS(=O)(=O)CC1)N(Cc1ccc(-c2nnc(C(F)(F)F)o2)cc1)c1ccc(-c2ccccc2)cc1 [Compound 21485, N-([1,1′-biphenyl]-4-yl)-N-(4-(5-(trifluoromethyl)-1,3,4-oxadiazol-2-yl)benzyl)thiomorpholine-4-carboxamide 1,1-dioxide] | 12 | 369 | 4420
Cn1ncc2ccc(-c3ccc(N(Cc4ccc(-c5nnc(C(F)(F)F)o5)cc4)C(=O)N4CCS(=O)(=O)CC4)cc3)cc21 [Compound 21487, N-(4-(1-methyl-1H-indazol-6-yl)phenyl)-N-(4-(5-(trifluoromethyl)-1,3,4-oxadiazol-2-yl)benzyl)thiomorpholine-4-carboxamide 1,1-dioxide] | 6 | 344 | 1950
O=C(N1CCS(=O)(=O)CC1)N(Cc1ccc(-c2nnc(C(F)(F)F)o2)cc1)c1ccc(-c2cccnc2)cc1 [Compound 21489, N-(4-(pyridin-3-yl)phenyl)-N-(4-(5-(trifluoromethyl)-1,3,4-oxadiazol-2-yl)benzyl)thiomorpholine-4-carboxamide 1,1-dioxide] | 18 | 89 | 1650
O=C(N1CCS(=O)(=O)CC1)N(Cc1ccc(-c2nnc(C(F)(F)F)o2)cc1)c1ccc(-c2ccoc2)cc1 [Compound 21491, N-(4-(furan-3-yl)phenyl)-N-(4-(5-(trifluoromethyl)-1,3,4-oxadiazol-2-yl)benzyl)thiomorpholine-4-carboxamide 1,1-dioxide] | 25 | 157 | 4040
O=C(N1CCS(=O)(=O)CC1)N(Cc1ccc(-c2nnc(C(F)(F)F)o2)cc1)c1ccc(-c2ccc3c(c2)OCO3)cc1 [Compound 21493, N-(4-(benzo[d][1,3]dioxol-5-yl)phenyl)-N-(4-(5-(trifluoromethyl)-1,3,4-oxadiazol-2-yl)benzyl)thiomorpholine-4-carboxamide 1,1-dioxide] | 6 | 313 | 1740
O=C(N1CCS(=O)(=O)CC1)N(Cc1ccc(-c2nnc(C(F)(F)F)o2)cc1F)c1ccc(-c2cccnc2)cc1 [Compound 21517, N-(2-fluoro-4-(5-(trifluoromethyl)-1,3,4-oxadiazol-2-yl)benzyl)-N-(4-(pyridin-3-yl)phenyl)thiomorpholine-4-carboxamide 1,1-dioxide] | 31 | 93 | 2920
O=C(N1CCS(=O)(=O)CC1)N(Cc1ccc(-c2nnc(C(F)(F)F)o2)cc1F)c1ccc(-c2ccncc2)cc1 [Compound 21519, N-(2-fluoro-4-(5-(trifluoromethyl)-1,3,4-oxadiazol-2-yl)benzyl)-N-(4-(pyridin-4-yl)phenyl)thiomorpholine-4-carboxamide 1,1-dioxide] | 20 | 131 | 2650
O=C(N1CCS(=O)(=O)CC1)N(Cc1ccc(-c2nnc(C(F)(F)F)o2)cc1F)c1ccc2c(c1)CCO2 [Compound 21543, N-(2,3-dihydrobenzofuran-5-yl)-N-(2-fluoro-4-(5-(trifluoromethyl)-1,3,4-oxadiazol-2-yl)benzyl)thiomorpholine-4-carboxamide 1,1-dioxide] | 64 | 73 | 4750
Cn1ncc2ccc(N(Cc3ccc(-c4nnc(C(F)(F)F)o4)cc3F)C(=O)N3CCS(=O)(=O)CC3)cc21 [Compound 21545, N-(2-fluoro-4-(5-(trifluoromethyl)-1,3,4-oxadiazol-2-yl)benzyl)-N-(1-methyl-1H-indazol-6-yl)thiomorpholine-4-carboxamide 1,1-dioxide] | 85 | 52 | 4440

Second part, the molecule after the results:

HDAC6 selectivity (fold) (human recombinant HDAC6) | IC50 (human recombinant HDAC6) [nM] | IC50 (human recombinant HDAC1) [nM] | SMILES
100 | 100 | 8280 | CCN1CCN(C(=O)N(Cc2ccc(-c3nnc(C(F)(F)F)o3)cc2F)c2ccc(F)c(Cl)c2)CC1 [Compound 21592, N-(3-chloro-4-fluorophenyl)-4-ethyl-N-(2-fluoro-4-(5-(trifluoromethyl)-1,3,4-oxadiazol-2-yl)benzyl)piperazine-1-carboxamide]
468 | 77 | 36100 | CCN1CCN(C(=O)N(Cc2ccc(-c3nnc(C(F)F)o3)cc2F)c2ccc(F)cc2Cl)CC1 [Compound 21650, N-(2-chloro-4-fluorophenyl)-N-(4-(5-(difluoromethyl)-1,3,4-oxadiazol-2-yl)-2-fluorobenzyl)-4-ethylpiperazine-1-carboxamide]
806 | 61 | 49200 | CN(C)[C@H]1CCN(C(=O)N(Cc2ccc(-c3nnc(C(F)F)o3)cc2F)c2ccc(F)cc2Cl)C1 [Compound 21651, (S)—N-(2-chloro-4-fluorophenyl)-N-(4-(5-(difluoromethyl)-1,3,4-oxadiazol-2-yl)-2-fluorobenzyl)-3-(dimethylamino)pyrrolidine-1-carboxamide]
787 | 46 | 36500 | CN(C)[C@@H]1CCN(C(=O)N(Cc2ccc(-c3nnc(C(F)F)o3)cc2F)c2ccc(F)cc2Cl)C1 [Compound 21652, (R)—N-(2-chloro-4-fluorophenyl)-N-(4-(5-(difluoromethyl)-1,3,4-oxadiazol-2-yl)-2-fluorobenzyl)-3-(dimethylamino)pyrrolidine-1-carboxamide]
1518 | 12 | 18800 | CN1CCN(C(=O)N(Cc2ccc(-c3nnc(C(F)F)o3)cc2F)c2ccc3cnn(C)c3c2)CC1 [Compound 21654, N-(4-(5-(difluoromethyl)-1,3,4-oxadiazol-2-yl)-2-fluorobenzyl)-4-methyl-N-(1-methyl-1H-indazol-6-yl)piperazine-1-carboxamide]
1122 | 33 | 36500 | CCN1CCN(C(=O)N(Cc2ccc(-c3nnc(C(F)F)o3)cc2F)c2ccc(F)c(Br)c2)CC1 [Compound 21656, N-(3-bromo-4-fluorophenyl)-N-(4-(5-(difluoromethyl)-1,3,4-oxadiazol-2-yl)-2-fluorobenzyl)-4-ethylpiperazine-1-carboxamide]
